According to US7723070B2, “Overexpression of aminoacyl-tRNA synthetases for efficient production of engineered proteins containing amino acid analogues” (California Institute of Technology, priority 2000, dated 2010):

Test system: B834(DE3) or CAG18491 hosts with pQE15/pREP4 or pQE15-MRS/pREP4
Assay: Translational activity: mDHFR synthesis, statements covering several bacterial hosts (with pQE15 or pQE15-MRS)
Type: cell-based, E. coli
Conditions: amino acids at 60 mg/liter, both bacterial hosts
Description: Methionine analogues were synthesized via alkylation of diethylacetamidomalonate, as previously described (As described in Example I, infra; J. C. M. van Hest, D. A. Tirrell, FEBS Lett. 1998, 428, 68-70). Cultures of B834(DE3)/pQE15-MRS/pREP4 or B834(DE3)/pQE15/pREP4 or CAG18491/pQE15-MRS/pREP4 or CAG18491/pQE15/pREP4 in M9AA media were grown to an optical density of 0.90, and the cells were sedimented by centrifugation. The M9AA medium was prepared by supplementing sterile M9 medium with […] of each of the amino acids, 1 mM MgSO4, 0.2 wt % glucose, 1 mg/ml thiamine chloride, and […] calcium chloride. The antibiotics ampicillin and kanamycin were added at concentrations of 200 mg/l and 35 mg/l, respectively.
Cells were washed three times with M9 salts and resuspended to an optical density of 0.90 in M9 test media containing 19 amino acids plus 1) neither methionine nor analogue (negative control); 2) methionine (60 mg/liter, positive control); or 3) an analogue of interest (60 mg/liter). To test the effect of increasing the level of supplementation of the analogues, a set of experiments was also conducted in which the medium was supplemented with 500 mg/liter of methionine or the amino acid analogue. Expression of mDHFR was induced by addition of 0.4 mM isopropyl β-D-thiogalactopyranoside (IPTG), and protein synthesis was monitored after 4.5 hours.

Row | SMILES | target protein mDHFR in SDS-PAGE
1 | NC(CCCC(F)(F)F)C(=O)O (racemic) [Analogue 6, DL-6,6,6-trifluoro-2-amino hexanoic acid] | not observed
2 | C=CCOC[C@H](N)C(=O)O (racemic) [Analogue 10, o-allylserine] | not observed
3 | C#CCC(N)C(=O)O (stereo not drawn) [Analogue 13, propargylglycine] | not observed
